Earlier results, collected in patent publication US9603803B2, “Process for preparing spray dried formulations of 4-[[6-amino-5-bromo-2-[(4-cyanophenyl)amino]-4-pyrimidinyl]oxy]-3,5-dimethylbenzonitrile” (JANSSEN SCIENCES IRELAND UC, priority 2006, dated 2017).

What was measured:
[1] = test system: many mutated variants
[2] = test system: wild type HIV

Cc1cc(C#N)cc(C)c1Oc1nc(Nc2ccc(C#N)cc2)nc(N)c1Br [TMC125, 4-[[6-amino-5-bromo-2-[(4-cyanophenyl)amino]-4-pyrimidinyl]oxy]-3,5-dimethylbenzonitrile]
water-solubility: poor
activity against many mutated variants [1]: pronounced activity
activity against wild type HIV [2]: pronounced activity
